We go through 24 molecules from patent US20230295152A1 (SENDA BIOSCIENCES, INC., priority 2019, published 2023).

Holding throughout (assay type): in vitro ADME
Data set [1] is described as follows: Hepatocyte Stability Assay, mouse. As to all read-outs here: tested at 1 µM. Particulars: for Mouse hepatocyte clearance: mouse hepatocytes; for Suspension mou. heps Clint (% Qh): suspension mouse hepatocytes. The protocol: Example 7: Hepatocyte Stability Assay
• Preparation of working solutions: 10 mM stock solutions of test compound and positive control were prepared in DMSO. In separate conical tubes, the 10 mM solution of test compound and the positive control were diluted to 100 μM by combining 198 μL of 50% acetonitrile/50% water and 2 μL of 10 mM stock.
Data Analysis: All calculations were carried out using Microsoft Excel. Peak areas were determined from extracted ion chromatograms. In vitro half-life (t1/2) of parent compound was determined by regression analysis of the percent parent disappearance vs. time curve.
The in vitro half-life (in vitro t1/2) was determined from the slope value:
Conversion of the in vitro t1/2 (in min) into the in vitro intrinsic clearance (in vitro CLint, in μL/min/1×10^6 cells) was done using the following equation (mean of duplicate determinations):
V=incubation volume(0.2 mL);
N=number of hepatocytes per well(0.1×10^6 cells).

Data set [2] can be described thus: Plasma Protein Binding with Ultracentrifugation Method, mouse. Particulars: for fraction unbound at 30 min, 1 μM: mouse plasma, read-out: Mouse plasma protein binding (% bound); for fraction unbound at 5.5 h, 1 μM: mouse, plasma, read-out: Plasma Protein Binding PPB (m) % (converted). As for the experimental part:
The frozen plasma (stored at −80° C.) was thawed in a 37° C. water bath, followed by centrifugation at 3,220 g for 10 minutes to remove clots. The supernatant was removed into a new tube as the spun plasma. The spun plasma was pre-warmed in a 37° C. water bath for 10 minutes. The stock solutions of test compounds were diluted to 200 μM in DMSO, and then spiked into the plasma. Duplicate samples were prepared. The final concentration of compound was 1.0 μM. The final concentration of organic solvent was 0.5%. Warfarin was used as positive control in the assay. 1.0 mL of the spiked plasma was transferred to a new balance ultracentrifuge tube. Samples were incubated at 37° C., 5% CO2 for 30 minutes. After incubation, the balance ultracentrifuge tubes were centrifuged at 600,000 g for 5.5 hours at 37° C. After centrifugation, 50 μL solution was removed from the center of the ultracentrifuge tubes as the post-ultracentrifugation samples, followed by the addition of 50 μL blank plasma and 400 μL quench solution (acetonitrile containing internal standards (IS, 100 nM Alprazolam, 500 nM Labetalol and 2 μM Ketoprofen)) to precipitate protein and release compounds. Samples were vortexed for 2 minutes, followed by centrifugation at 20,000 g for 15 minutes at room temperature. The supernatant was diluted with ultrapure water and then used for LC-MS/MS analysis. Stability samples was prepared by transferring 50 μL of the spiked plasma to 0.6 mL tubes and incubated at 37° C., 5% CO2 for 0.5 and 6 hours. After incubation, 50 μL PBS (100 mM, pH7.4) and 400 μL quench solution were added to the stability samples. And then stability samples were treated the same way as the post-ultracentrifugation samples. The supernatant was diluted with ultrapure water and then used for LC-MS/MS analysis. 0.5 hour time point samples were also used as no-spun controls. Time 0 samples were prepared by transferring 50 μL spiked plasma to 0.6 mL tubes containing 50 μL PBS, followed by the addition of 400 μL quench solution to precipitate protein and release compound. And then these samples were treated the same way as the post-ultracentrifugation samples. The supernatant was diluted with ultrapure water and then used for LC-MS/MS analysis.
Data Analysis: All calculations were carried out using Microsoft Excel. The concentrations of test compound in plasma samples and post-ultracentrifugation plasma was determined from peak areas. The percentages of test compound bound was calculated as follows: […]
“+++” indicates a % bound value less than 50, “++” indicates a % bound value between 50 and 75, and “+” indicates a % bound value above 75.

Data set [3] is described as follows: Hepatocyte Stability Assay, human. Particulars: for CLint scaled: human, plated hepatocytes; for CLint scaled / Human hepatocyte clearance Plated hepatocyte Alliance assay: plated hepatocyte; for Plated heps (% Qh) / Plated heps (% Qh), All: plated human hepatocytes; for Plated heps (% Qh), All: value in brackets marked "All".
The mark [4] stands for this setting: Pharmaron assay, read-out: Human hepatocyte clearance Plated hepatocyte Pharmaron assay.
[5] abbreviates: Alliance assay, read-out: Human hepatocyte clearance Plated hepatocyte Alliance assay.

Where two headings read alike, the source gives them in different places.

With `O=c1c2cc(-c3ccc(Cl)cc3)nc(-c3cccnc3)c2ncn1C[C@@H](O)C(F)(F)F` (single isomer, unassigned) [185 enantiomer 1], in data set [1], the Mouse hepatocyte clearance entry is “+ (“+” indicates an CLint above 50 mL/min/Kg)”.
Take `O=c1c2cc(-c3ccc(Cl)cc3)nc(-c3cccnc3)c2ncn1C[C@H](O)C(F)(F)F` (single isomer, unassigned) [185 enantiomer 2]: in data set [1], the Mouse hepatocyte clearance result is on record as “+ (“+” indicates an CLint above 50 mL/min/Kg)”.
For `C[C@@H](CO)n1cnc2c(-c3cccc(F)c3)nc(-c3ccc(Cl)cc3)cc2c1=O` [Compound 7], in data set [2], the fraction unbound at 30 min, 1 μM was less than 0.25. Besides, the Mouse hepatocyte clearance result in data set [1] is “++ (“++” indicates a CLint between 20 and 50 mL/min/Kg)”.
On to `CC(C)(O)Cn1cnc2c(-c3cccnc3)nc(-c3ccc(C(F)(F)F)nc3)cc2c1=O` [Compound 9], for which, in data set [2], the fraction unbound at 30 min, 1 μM is less than 0.25 and the fraction unbound at 5.5 h, 1 μM is 0.104. In addition, in data set [1], the “Suspension mou. heps Clint (% Qh)” value was less than 33 % Qh. In addition, the CLint scaled in data set [3] (setting [4]) was less than 20 mL/min/kg. In addition, the “Human hepatocyte clearance Plated hepatocyte Alliance assay” value in data set [3] (Alliance assay) is listed as “+++ (“+++” indicates a CLint value less than 20 mL/min/Kg)”. Moreover, in data set [3], the “Plated heps (% Qh)” value is given as 2.1 % Qh and the “Plated heps (% Qh), All” value came to 0.6 % Qh.
As to `C[C@@H](CO)n1cnc2c(-c3cccnc3)nc(-c3ccc(C(F)(F)F)nc3)cc2c1=O` [Compound 12], the fraction unbound at 30 min, 1 μM in data set [2] is less than 0.25. In data set [1], the Mouse hepatocyte clearance result was “++ (“++” indicates a CLint between 20 and 50 mL/min/Kg)”. Further, the CLint scaled in data set [3] (setting [5]) is less than 20 mL/min/kg.
Regarding `CC(C)(O)Cn1cnc2c(-c3cccnc3)nc(-c3ccc(C(F)(F)F)cc3)cc2c1=O` [Compound 16], in data set [2], the fraction unbound at 30 min, 1 μM is less than 0.25. Further, in data set [1], the Mouse hepatocyte clearance entry was “++ (“++” indicates a CLint between 20 and 50 mL/min/Kg)”. The CLint scaled in data set [3] (setting [4]) is less than 20 mL/min/kg.
Consider `Cc1ccc(-c2cc3c(=O)n([C@@H](C)CO)cnc3c(-c3cccnc3)n2)cc1` [Compound 17, (S)-3-(1-hydroxypropan-2-yl)-8-(pyridin-3-yl)-6-(p-tolyl)pyrido[3,4-d]pyrimidin-4(3H)-one], for which the fraction unbound at 30 min, 1 μM in data set [2] was less than 0.25. In addition, the Mouse hepatocyte clearance entry in data set [1] was “+ (“+” indicates an CLint above 50 mL/min/Kg)”.
For the molecule `CC(C)(O)Cn1cnc2c(-c3cccnc3)nc(-c3ccc(Cl)cc3)cc2c1=O` [Compound 18], the fraction unbound at 30 min, 1 μM in data set [2] is less than 0.25. In addition, the Mouse hepatocyte clearance entry in data set [1] was “+ (“+” indicates an CLint above 50 mL/min/Kg)”. Further, in data set [3] (setting [4]), the CLint scaled is less than 20 mL/min/kg.
Regarding `Cn1cc(-c2nc(-c3ccc(Cl)cc3)cc3c(=O)n(CC(C)(C)O)cnc23)cn1` [Compound 21], the fraction unbound at 30 min, 1 μM in data set [2] was less than 0.25. For the same molecule, the Mouse hepatocyte clearance result in data set [1] is “++ (“++” indicates a CLint between 20 and 50 mL/min/Kg)”.
`C[C@@H](CO)n1cnc2c(-c3cccnc3)nc(-c3ccc(OC(F)(F)F)cc3)cc2c1=O` [Compound 22]: in data set [2], the fraction unbound at 30 min, 1 μM is less than 0.25. The Mouse hepatocyte clearance result in data set [1] was “++ (“++” indicates a CLint between 20 and 50 mL/min/Kg)”.
Turning to `C[C@@H](CO)n1cnc2c(-c3cccnc3)nc(-c3ccc(C(F)(F)F)cc3)cc2c1=O` [Compound 23], in data set [3] (setting [4]), the CLint scaled was less than 20 mL/min/kg.
Consider `C[C@H](n1cnc2c(-c3cnn(C)c3)nc(-c3ccc(Cl)cc3)cc2c1=O)C(C)(C)O` [Compound 30], for which the fraction unbound at 30 min, 1 μM in data set [2] is less than 0.25. For the same molecule, the Mouse hepatocyte clearance result in data set [1] is “++ (“++” indicates a CLint between 20 and 50 mL/min/Kg)”. For the same molecule, the CLint scaled in data set [3] (setting [4]) was less than 20 mL/min/kg.
Turning to `C[C@@H](CO)n1cnc2c(-c3cccnc3)nc(-c3ccc(C(F)(F)F)cn3)cc2c1=O` [Compound 46, (S)-3-(1-hydroxypropan-2-yl)-8-(pyridin-3-yl)-6-(5-(trifluoromethyl)pyridin-2-yl)pyrido[3,4-d]pyrimidin-4(3H)-one], in data set [2], the fraction unbound at 30 min, 1 μM is less than 0.25 and the fraction unbound at 5.5 h, 1 μM was 0.075. In data set [1], the Mouse hepatocyte clearance result was “++ (“++” indicates a CLint between 20 and 50 mL/min/Kg)”; the “Suspension mou. heps Clint (% Qh)” value is reported as less than 33 % Qh. Moreover, the CLint scaled in data set [3] (setting [4]) is less than 20 mL/min/kg. The “Human hepatocyte clearance Plated hepatocyte Alliance assay” value in data set [3] (Alliance assay) was “+++ (“+++” indicates a CLint value less than 20 mL/min/Kg)”. Moreover, in data set [3], the “Plated heps (% Qh)” value was less than 1 % Qh and the “Plated heps (% Qh), All” value is 1.0 % Qh.
With `O=c1c2cc(-c3ccc(C(F)(F)F)nc3)nc(-c3cccnc3)c2ncn1C[C@H](O)C(F)(F)F` [Compound 57], the CLint scaled in data set [3] (setting [5]) is less than 20 mL/min/kg.
For `C[C@@H](CO)n1cnc2c(-c3cnsc3)nc(-c3ccc(Cl)cc3)cc2c1=O` [Compound 58], the Mouse hepatocyte clearance result in data set [1] was “++ (“++” indicates a CLint between 20 and 50 mL/min/Kg)”.
Regarding `Cn1cc(-c2nc(-c3ccc(C(F)(F)F)nc3)cc3c(=O)n(CC(C)(C)O)cnc23)cn1` [Compound 60], the fraction unbound at 30 min, 1 μM in data set [2] was less than 0.25. In data set [1], the Mouse hepatocyte clearance entry was “++ (“++” indicates a CLint between 20 and 50 mL/min/Kg)”. Also, the CLint scaled in data set [3] (setting [4]) is less than 20 mL/min/kg.
Regarding `C[C@@H](CO)n1cnc2c(-c3cnn(C)c3)nc(-c3ccc(C(F)(F)F)nc3)cc2c1=O` [Compound 68], in data set [2], the fraction unbound at 30 min, 1 μM is less than 0.25. Besides, the CLint scaled in data set [3] (setting [5]) was less than 20 mL/min/kg.
For the molecule `C[C@@H](CO)n1cnc2c(-c3cccnc3)nc(-c3ccc(C4CC4)nc3)cc2c1=O` [Compound 74], in data set [1], the Mouse hepatocyte clearance entry is “+ (“+” indicates an CLint above 50 mL/min/Kg)”.
For the molecule `O=c1c2cc(-c3ccc(C(F)(F)F)nc3)nc(-c3cccnc3)c2ncn1[C@@H]1COC[C@H]1O` [Compound 79], the fraction unbound at 30 min, 1 μM in data set [2] was less than 0.25. For the same molecule, in data set [3] (setting [4]), the CLint scaled is less than 20 mL/min/kg.
As to `C[C@@H](CO)n1cnc2c(-c3cnn(C)c3)nc(-c3ccc(C4CC4)nc3)cc2c1=O` [Compound 83], the CLint scaled in data set [3] (setting [5]) was less than 20 mL/min/kg.
For the molecule `Cn1cc(-c2nc(-c3ccc(C(F)(F)F)cn3)cc3c(=O)n(CC(C)(C)O)cnc23)cn1` [Compound 103, 3-(2-hydroxy-2-methylpropyl)-8-(1-methyl-1H-pyrazol-4-yl)-6-(5-(trifluoromethyl)pyridin-2-yl)pyrido[3,4-d]pyrimidin-4(3H)-one], in data set [2], the fraction unbound at 30 min, 1 μM is less than 0.25.
Regarding `CC(C)(O)Cn1cnc2c(-c3cccnc3)nc(-c3ccc(C(F)(F)F)cn3)cc2c1=O` [Compound 105], in data set [2], the fraction unbound at 30 min, 1 μM was less than 0.25. Further, the Mouse hepatocyte clearance entry in data set [1] was “++ (“++” indicates a CLint between 20 and 50 mL/min/Kg)”. In addition, the CLint scaled in data set [3] (setting [4]) was less than 20 mL/min/kg.
As for `O=c1c2cc(-c3ccc(Cl)cc3)nc(-c3cccnc3)c2ncn1[C@H]1COC[C@@H]1O` [Compound 125, 6-(4-chlorophenyl)-3-((3S,4R)-4-hydroxytetrahydrofuran-3-yl)-8-(pyridin-3-yl)pyrido[3,4-d]pyrimidin-4(3H)-one], in data set [2], the fraction unbound at 30 min, 1 μM is less than 0.25. The CLint scaled in data set [3] (setting [4]) was less than 20 mL/min/kg.
For the molecule `C[C@@H](CO)n1cnc2c(-n3ccnc3)nc(-c3ccc(C(F)(F)F)nc3)cc2c1=O` [Compound 163, (S)-3-(1-hydroxypropan-2-yl)-8-(1H-imidazol-1-yl)-6-(6-(trifluoromethyl)pyridin-3-yl)pyrido[3,4-d]pyrimidin-4(3H)-one], the CLint scaled in data set [3] (setting [5]) was less than 20 mL/min/kg.
